Legend:
[1] = system: RNA having an intronic REMS sequence; test: RNA sequencing of compound-treated cells: iExon inclusion or eExon formation (ΔPSI, Fisher's Exact Test); assay type: cell-based; conditions: cells treated with Compound 64 (24 nm and 100 nm); genes listed in Table 10; adjusted Fisher's Exact Test p value
Experimental: Techniques known to one skilled in the art may be used to determine the amount of an RNA transcript(s). In some aspects, the amount of one, two, three or more RNA transcripts is measured using deep sequencing, such as ILLUMINA® RNASeq, ILLUMINA® next generation sequencing (NGS), ION TORRENT® RNA next generation sequencing, 454™ pyrosequencing, or Sequencing by Oligo Ligation Detection (SOLID™), Single Molecule, Real-Time (SMRT) sequencing, Nanopore sequencing. In other aspects, the amount of multiple RNA transcripts is measured using an exon array, such as the GENECHIP® human exon array. In certain aspects, the amount of one, two, three or more RNA transcripts is determined by RT-PCR. In other aspects, the amount of one, two, three or more RNA transcripts is measured by RT-qPCR or digital color-coded barcode technology. Techniques for conducting these assays are known to one skilled in the art. […]
Where “U” represents the value for probability of iExon inclusion (a+b)/2/[(a+b)/2+c] in the absence of the compound; and, where “C” represents the value for probability of iExon inclusion (a+b)/2/[(a+b)/2+c] in the presence of the compound. The values for “a” and “b” represent the number of reads supporting inclusion of an iExon in an RNA transcript. […] The value for “c” represents the number of reads supporting exclusion of an iExon. […]

SH-SY5Y cells = test: Endpoint RT-PCR of alternatively spliced mRNAs (iExon inclusion) in cultured cells; assay type: cell-based, human; conditions: cells treated at 10 nM, 1 μM or 10 μM vs DMSO; genes of FIGS. 2A-6A
Experimental: SH-SY5Y cells derived from a bone marrow biopsy of a patient with neuroblastoma were plated at 600,000 cells/well in 2 mL DMEM with 10% FBS in 6-well plates, and incubated for 4 hours in a cell culture incubator (37° C., 5% CO2, 100% relative humidity). Cells were then treated with Compound 64 at different concentrations (in 0.1% DMSO) for 24 hours. After removal of the supernatant, cells were lysed in RLT buffer with ß-mercaptoethanol and total RNA was extracted according to the manufacturer's protocol (RNeasy Mini Kit, Qiagen, Inc.).
One-step RT-PCR was performed using AgPath-ID™ One-Step RT-PCR Reagents (Life Technologies, Inc.) using 50 ng total RNA as input. The following PCR conditions were used: Step 1: 48° C. (15 min), Step 2: 95° C. (10 min), Step 3: 95° C. (30 sec), Step 4: 55° C. (30 sec), Step 5: 68° C. (1 min), repeat Steps 3 to 5 for 34 cycles, then hold at 4° C. The presence of iExons within alternatively spliced mRNAs was identified using primers listed in Tables 13 through 19, which correspond to FIGS. 2, 3, 4 and 5. PCR products were separated on 2% agarose E-gels (Life Technologies, Inc.), stained with ethidium bromide and visualized using a gel imager (UVP). […]

Q: `CC1(C)CC(Oc2ccc(-c3ccc(-c4cn[nH]c4)cc3O)nn2)CC(C)(C)N1` [Compound 64, 5-(1H-pyrazol-4-yl)-2-(6-((2,2,6,6-tetramethylpiperidin-4-yl)oxy)pyridazin-3-yl)phenol] was tested. Which “effect on inclusion of an iExon or formation of an eExon with a corresponding change in isoform abundance” value [1] did it give?
A: statistically significant

Q: What about the “iExon-containing PCR product on agarose gel” value (SH-SY5Y cells) of the same compound?
A: appearance of a slower migrating PCR product containing the intronic-derived exon
